Patent publication US8604220B2, “Isolation of Simalikalactone E and use thereof as a medicament, in the treatment of malaria” (priority 2009, dated 2013)

Columns and labels:
[1] = tested on: Vero cells; experiment: Cytotoxicity on Vero cells, tritiated hypoxanthine incorporation; type: cell-based, monkey; settings: for toxicity compared with Simalikalactone D: mammalian cell lines (Vero cells)
Protocol: (§1) This evaluation is carried out on two cell types, the MCF-7 line, which is a mammary tumor cell line, and Vero cells (monkey kidney cells).
(§2) VERO cells are monkey kidney epithelial cells. They are cultured in the same way as the MCF-7, but in EMEM medium supplemented with 10% FCS, nonessential amino acids, sodium pyruvate, HEPES and glutamine.
(§3) The evaluation of cytotoxicity follows the same method as the antimalarial activity test, but with P. falciparum being replaced with the MCF-7 or VERO cells.
(§4) However, there are a few minor modifications, owing to the different mode of culture. This is because the cells used for the cytotoxicity tests are adherent cells and their growth is slower. Consequently, they are seeded in 96-well plates 24 hours before they are brought into contact with the test products. After 24 h, the cells adhere to the bottom of the well, the medium is changed, and then the test molecules are added, the dilution thereof being carried out in complete medium. The medium used depends on the cells used (DMEM or EMEM).
(§5) In the same way as for the antimalarial activity test, tritiated hypoxanthine is added 24 hours after bringing into contact with the products, and the plate is placed in the freezer 48 hours later. Finally, the radioactivity is measured as for the antimalarial activity test. The evaluation of the IC50 values is carried out graphically as for that of P. falciparum.

[2] = as above; type: cell-based, monkey; settings: monkey, Vero cells (monkey kidney epithelial cells)
Protocol: as §1, §2, §3, §4, §5

[3] = Cytotoxicity on THP1 cells; type: cell-based; settings: human
[4] = tested on: primary rodent hepatocytes; experiment: In vitro cytotoxicity on primary rodent hepatocytes, MTT assay; type: cell-based, mouse; settings: the other two experiments; highest concentration tested 5.54 μM
Protocol: (§6) In parallel, the cytotoxicity of the compound was evaluated on human and rodent hepatocytes treated under the same conditions as in the assays for activity of the test compound, by means of the MTT (tetrazolium) colorimetric assay (Mosmann et al., 1983). After incubation of the primary rodent or human hepatocytes for 2 days or 5 days, respectively, with the various concentrations of the test compound, 100 μl of MTT solution ([…]) were added to each well. The plates were then incubated for 4 hours at 37° C. The formazan crystals were then dissolved in 100 μl of DMSO-ethanol mixture (V/V). The optical density was measured by spectrophotometry at 540 nm. The results are expressed as percentage cell viability relative to the untreated control.

[5] = as above; type: cell-based, mouse; settings: Swiss, mouse, primary hepatocytes; one of the 3 experiments carried out; read-out: cytotoxicity IC50 on murine hepatocytes
Protocol: as §6

[6] = tested on: P. vinckei petteri; experiment: Antimalarial activity in vivo, mice infected with P. vinckei petteri (Peters test); parameters: species or system Plasmodium vinckei petteri; settings: for survival of the mice compared with chloroquine: IP route; for ED50, dose inhibiting 50% of the growth of P. vinckei petteri: mice, 4 days
Protocol: The antimalarial activity of SkE was evaluated on female Swiss mice (22 g±2) infected with P. vinckei petteri. Before infection of the mice having been used for the test, the parasites were thawed, injected and maintained by passaging in two batches of mice. The parasitized blood was taken from the retro-orbital sinus and each mouse of the study was infected with 2×10^7 parasites intraperitoneally. The infected animals were divided up into batches of 5 per cage and were treated intraperitoneally each day for 4 days. The SkE was tested at 4 concentrations prepared in 90% DMSO (intraperitoneal route) or carboxymethylcellulose (oral route) in such a way that each mouse receives 200 μl of preparation. The experiment included control parasitized mice receiving 200 μl of 90% DMSO or CMC alone orally, and 3 batches of 5 mice, each of these batches being treated with solutions of chloroquine at 1, 5 and 10 mg/kg diluted in PBS (IP).
At the end of the treatment (5 d after the infection), a blood smear was performed from a drop of blood originating from the tail of each mouse, fixed with methanol and stained with Giemsa. The slides were examined under a microscope and the parasitemia counted for 10 000 red blood cells.
The survival of the mice was monitored for 21 days.

[7] = tested on: liver stages of Plasmodium yoelii; experiment: In vitro activity against liver stages of P. yoelii in mouse primary hepatocytes; type: cell-based; settings: for IC50: Plasmodium yoelii, Hepatocyte, liver stages, 48 hours, SkE mean of three experiments, read-out: IC50 on murine hepatocytes infected with P. yoelii
Protocol: (§7) The in vitro activity of SkE against the pre-erythrocytic stages was tested on different Plasmodium species. […] The in vitro assays were carried out using cultures of human primary hepatocytes (HH) or mouse primary hepatocytes (MH), respectively. The primary cells were isolated by collagenase perfusion of pieces of liver (obtained from humans or from female Swiss mice, respectively), followed by purification of the separated cells on a percoll gradient. The hepatocytes were seeded into 96-well microplates (35 000 MH/well and 82 500 HH/well) and maintained in culture at 37° C. and 5% CO2 in a William medium supplemented with 10% FCS (Hyclone), 100 U/ml of penicillin, […] of streptomycin, 2 mM of glutamine, 5 μg/ml of insulin and 5×10^−7 M of hydrocortisone hemisuccinate. A stock solution of SkE was prepared in DMSO at 200 mg/ml, and then diluted in complete medium described above so as to obtain the desired concentrations. The hepatocytes were infected with P. yoelii sporozoites (30 000) or P. falciparum sporozoites (40 000). The SkE compound was added simultaneously with sporozoites at various concentrations. The culture medium was then replaced 3 h after the inoculation of the sporozoites, and then every day. The cultures were fixed 48 hours after the infection for P. yoelii, and 5 days after infection for P. falciparum. The inhibitory effect of the compound was quantified, after fluorescent immunolabeling of the liver schizonts with a mouse serum directed against PfHSP70, by fluorescence microscopy analysis.

[8] = tested on: liver stages of Plasmodium falciparum; experiment: In vitro activity against liver stages of P. falciparum in human primary hepatocytes; type: cell-based; settings: for therapeutic index TI=TC50/IC50: P. falciparum liver stages, human hepatocytes; for IC50: Plasmodium falciparum, Hepatocyte, 120 h, human primary hepatocytes, 5 days, SkE mean of two experiments
Protocol: as §7

[9] = tested on: P. falciparum (F32 Tanzania, FcB1 Colombia, W2 Indochina strains); experiment: Antiplasmodial activity in vitro, tritiated hypoxanthine incorporation; type: cell-based; settings: Plasmodium falciparum, 48 h, read-out: IC50, inhibits 50% of the growth of P. falciparum in culture
Protocol: The following three strains of Plasmodium falciparum were used: • chloroquine-sensitive F32 Tanzania • chloroquine-resistant FcB1 Colombia • W2 Indochina.
The antimalarial activity of the various products is evaluated by means of the radioactive method using tritiated hypoxanthine, described by Desjardins et al., with the modifications introduced by Benoit et al. (Desjardins R. E. et al., Antimicrob. Agents Chemother, 1979, 16: 710-718; F. Benoit et al. Trans. Roy. Soc. Trop. Med. Hyg. 89: 217-218).
The test is carried out in 96-well culture plates (supplier: TPP, Switzerland) on cultures mainly at the ring stage. The parasites are brought into contact with the products for 48 h at 37° C. and 5% CO2. The growth of the parasite is then estimated by following tritiated hypoxanthine incorporation into the nucleic acids of the parasite. The IC50 values are determined graphically on curves of percentage inhibition of growth as a function of concentration. Thus, the antimalarial activity of SkE was evaluated according to the following protocol. […]
The filter is then placed in a cassette which is placed in the β-counter in order to measure the radioactivity. […]

[10] = Vero cells versus P. falciparum

| SMILES | IC50 ([1]; Primates, Vero cells, read-out: inhibits 50% of the growth of Vero mammalian cells) [µM] | selectivity index [1, 10] | selectivity index with respect to P. falciparum compared with SkD [1, 10] | toxicity compared with Simalikalactone D [1] | toxicity compared with Simalikalactone D ([1]; listed as Simalikalactone E) | IC50 at 72 h [2] [µM] | IC50 [3] [nM] | cytotoxicity on murine hepatocytes at highest concentration tested [4] | IC50 at 2 days [5] [nM] | survival of the mice compared with chloroquine ([6]; all doses, p<0.05) | survival of the mice compared with chloroquine ([6]; dose of 1 mg/kg/d) | mean survival time of the mice ([6]; ip at 1 mg/kg/day, monitored for 3 weeks, one experiment) | ED50, dose inhibiting 50% of the growth of P. vinckei petteri ([6]; intraperitoneally) [mg/kg/day] | ED50, dose inhibiting 50% of the growth of P. vinckei petteri ([6]; orally) [mg/kg/day] | IC50 [7] [nM] | activity relative to primaquine on P. yoelii liver stages ([7]; fold more active than primaquine, same conditions) | therapeutic index TI=TC50/IC50 [8] | IC50 [8] [nM] | IC50 [9] [nM] |
| --- | --- | --- | --- | --- | --- | --- | --- | --- | --- | --- | --- | --- | --- | --- | --- | --- | --- | --- | --- |
| CCC(C)C(=O)O[C@@H]1[C@H]2C(C)=CC(=O)[C@@H](O)[C@]2(C)[C@H]2[C@@H](O)[C@H](O)[C@@]3(C)OC[C@@]24[C@@H]1OC(=O)[C@H](OC(=O)C(C)CC)[C@@H]34 (some centres unmarked) [SkE, Simalikalactone E] | 6.57 | greater than 100 | twice that of SkD | less than that of SkD | less toxicity than Simalikalactone D | 6 | 33 | no toxicity was observed | 1120 | always better than that of the mice treated with CQ at the doses of 1 | equivalent to what is obtained for CQ at 10 mg/kg/d | greater than 18.6 days | 0.5 | 1 | 186 ± 16 | at least 3 times | 75 | 1200 ± 190 | 24 to 68 |
| COc1cc(NC(C)CCCN)c2ncccc2c1 (centres unmarked) [primaquine, reference compound] |  |  |  |  |  |  |  |  |  |  |  |  |  |  | 640 |  | 81 | 800 |  |
| CCN(CC)CCCC(C)Nc1ccnc2cc(Cl)ccc12 (centres unmarked) [chloroquine, reference compound] |  |  |  |  |  |  |  |  |  |  |  |  | 3 |  |  |  |  |  |  |
